Reference: PubChem BioAssay AID179 (DTP/NCI, 2004)
“And” between values parts separate entries of the source, which are not always exact repeats. Equal entries are not always repeated. The source made the active and inactive calls.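 Rule for the calls: active = compounds giving half or more protection of infected cells from virus-caused growth loss, again on retest; inactive = the rest.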

Test system: CEM cells HIV-1 protection, formazan growth assay
Experiment: NCI AIDS Antiviral Assay
Conditions: for IC50: measured here: growth of uninfected CEM cells
How it was run: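 Five concentrations of each compound were applied to infected and uninfected human CEM cells. Protection from HIV-1 was judged from growth measured with a soluble formazan assay.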

SMILES	EC50 [µM]	IC50	outcome
N#Cc1c(-c2ccc(F)cc2)c(-c2ccc(F)cc2)nn(CCO)c1=O	> 141	1.48 µM	
C(=C\c1cc(-c2ccc3ccccc3n2)nc2ccc3ccccc3c12)/c1ccc2ccccc2n1	> 200	> 200 µM	
Cc1nn(C(=O)CC(=O)Nc2ccc(Cl)cc2)c(C)c1N=Nc1ccccc1C(=O)O	> 42.7	> 42.7 µM	
CCCCCCOc1ccc(C(=O)NOCc2ccccc2)cc1	> 200	66.1 µM	
CC(=O)OCC1OC(n2c(C)c(C)cc(C#N)c2=S)C(OC(C)=O)C(OC(C)=O)C1OC(C)=O (stereo not drawn)	> 200	> 200 µM	
O=C(/C=C/c1ccc(F)c(F)c1)OCCc1ccccc1	> 200	38.9 µM	
Cn1c(=O)c2[nH]c(N=O)nc2n(C)c1=O	> 200	> 200 µM	
O=C1NCC2(CCN(CCCC3(c4ccc(F)cc4)OCCO3)CC2)N1c1ccccc1	> 200	> 200 µM	
O=[N+]([O-])C1(C[Se]c2cccc(C(F)(F)F)c2)CCCCC1			inactive
CN1CC(C)(C)NC(=O)[C@@](C)(OCc2ccccc2)CN(C)CC(C)(C)NC(=O)[C@](C)(OCc2ccccc2)C1	> 200	120 µM	
N[C@H]1c2ccsc2C(=O)[C@H]1O	> 1	> 1 µM	
O=C1/C(=C/c2cccc(F)c2)Cc2ccccc21	> 30.2	> 30.2 µM	
CCN(CC)CCCC(C)Nc1cc(-c2ccccc2)nc2ccc(OC)cc12 (stereo not drawn)	> 363	2 µM	
CCCc1cc(=O)oc2c3c(cc(OC(C)C)c12)O[C@H](C)[C@H](C)[C@@H]3O	> 200	49 µM	
Cn1c(=O)nc2n(-c3ccc(O)cc3)c3ccccc3nc-2c1=O			inactive
O=C(CC1C(=O)Nc2ccccc2S1(=O)=O)Nc1cccc(Cl)c1 (stereo not drawn)	> 27.5	> 27.5 µM	
O=C(Nc1ccccc1)Nc1ccc([N+](=O)[O-])cn1	> 200	> 200 µM	
CC(=O)/C(=C/n1ccc(=O)[nH]c1=S)C(=O)Nc1ccc(Cl)cc1	> 200	155 µM	
CC(=O)C(=O)N1Cc2cc3ccccc3nc2C1	> 708	257 µM	
CC(=O)CC(=O)Nc1ccccc1[N+](=O)[O-]			inactive
Cn1nc2n(c1=O)CCCN2	> 200	> 200 µM	
O=C(Nc1ccccn1)/C(=C\C(=O)c1ccc(Cl)cc1)Nc1ccccc1	> 200	174 µM	
CN(c1ccccc1)S(=O)(=O)c1ccc(Cl)cc1	> 200		

SMILES	EC50 [µM]	IC50	outcome
Cc1cccc(C2(Br)C(=O)c3ccccc3C2=O)c1	> 200	195 µM	
Cc1cc(N(CCC#N)CCC#N)ccc1N=Nc1ccccc1[N+](=O)[O-]	> 14.5	> 14.5 µM	
Cc1[nH]c(C)c2ccc(=O)ccc12	> 240	145 µM	
C=Cc1cc[n+](CC(=O)c2ccc(-c3ccccc3)cc2)cc1	> 200	45.7 µM	
CCCCCCCCSC(SCCCCCCCC)=C1C(=O)N(c2ccccc2)N=C1C	> 28.8	> 28.8 µM	
Nc1nc2c(ncn2CC2OCC(CO)O2)c(=O)[nH]1 (stereo not drawn)	> 2950	1820 µM and 275 µM	
C(=C/[PH+](c1ccccc1)c1ccccc1)/[PH+](c1ccccc1)c1ccccc1.[C-]#[O+].[C-]#[O+].[C-]#[O+].[C-]#[O+].[C-]#[O+].[Mo+2].[Mo+4].[c-]1[c-][c-][cH-][c-]1.[c-]1[c-][c-][cH-][c-]1	> 6.03	3.31 µM	
C[N+](C)([O-])CCCNc1ccnc2cccc([N+](=O)[O-])c12	> 200	27.5 µM	
N#CCN1CCOCCOCCN(CC#N)CCOCCOCC1			inactive
CCOC(=O)/C(=C\c1ccc(Cl)cc1)C(C)=O	> 372	64.6 µM	
O=C1OC(=O)C2=C1CCc1ccccc12			inactive
O=S(=O)(O)c1ccc2c(N=Nc3cccc4ccccc34)c(O)c(S(=O)(=O)O)cc2c1			inactive
CCC(=O)n1c(=O)n(-c2ccc([N+](=O)[O-])cc2)c(=O)n1C(=O)CC	> 200	> 200 µM	
CCCNC(=S)N=Nc1c(O)[nH]c2ccccc12	> 200	> 200 µM	
O=C1NC(=S)N/C1=C\c1cc2c(=O)c3ccccc3sc2s1	75.9	81.3 µM	
NC(=O)COC(=O)c1c(Cl)nc2sccn12	> 347	> 347 µM	
CN(C)c1ccc(/C=C/C(=O)[O-])cc1.CN(C)c1ccc(/C=C/C(=O)[O-])cc1.[Cu+2]	> 8.51	> 8.51 µM	
CCCCCCCCCCCCP(=O)(O)OCC(N)C(=O)O (stereo not drawn)	> 200	83.2 µM	
COc1cccc(/C=C(\C#N)C(=O)c2ccccc2)c1	> 97.7	> 97.7 µM	
COCc1c(CO)cnc(C)c1OC1OC(CO)C(O)C(O)C1O (stereo not drawn)	> 724	> 724 µM	
CCOP(=S)(Nc1cccc(C(F)(F)F)c1)OCC	> 200	166 µM	
O=C(c1ccc(Cl)cc1)N(C(=O)N1CCCCC1)c1ccccc1	> 200	81.3 µM	
O=C(O)CCN(CCCN(CCC(=O)O)CCC(=O)O)CCC(=O)O	> 575	8.13 µM	

SMILES	EC50 [µM]	IC50	outcome
COc1ccc(-c2onc(-c3ccc([N+](=O)[O-])cc3)c2C2=NCCCN2)cc1	> 50.1	> 50.1 µM	
CC(=S)N=Cc1c(N)[nH]n(-c2ccccc2)c1=O	> 200	> 200 µM	
Cc1ccc2nc3c(Cl)cc(=O)cc-3sc2c1	> 7.59	3.89 µM	
CC1=Nc2ccccc2C12C(c1ccccc1)CC(=O)N1c3ccccc3CC12 (stereo not drawn)	> 33.9	> 33.9 µM	
CCOC(=O)/C(N=Nc1ccc(-n2c(C)nc3ccccc3c2=O)cc1)=C(/C)O	> 200	151 µM	
CC(C)c1ccc2c(c1)CCC1C(C)(C)[C@@H](O)CC[C@]21C (stereo partly drawn)	> 66.1	37.2 µM	
CC(=O)Nc1cc(OCC(=O)O)ccc1S(=O)(=O)c1ccc(OCC(=O)O)cc1NC(C)=O	> 200	> 200 µM	
O=c1cc(CCl)n2cnc3c(ncn3C3OC(CO)C(O)C3O)c2n1 (stereo not drawn)			inactive
COC(=O)C(=O)C(/C=N/C(=S)NCCc1ccc(OC)c(OC)c1)=C(/O)c1ccc([N+](=O)[O-])cc1	> 100	> 100 µM	
Cc1ccc(-n2c(C)n[nH]c2=O)cc1	> 200	> 200 µM	
Cc1ccc(S(=O)(=O)Nn2c(-c3ccccc3)c(C#N)c(-c3ccc(N(C)C)cc3)c(C#N)c2=O)cc1	> 100	35.5 µM	
O=[N+]([O-])c1ccc2c(c1)C1=C(CO2)Cc2ccccc2O1			inactive
COc1cc2cc3c(c(-c4ccc5c(c4)OCO5)c2c(OC)c1OC)COC3=O	> 34.7	17.8 µM	
CCCNC(=O)N(CC(C)C)S(=O)(=O)c1ccc(Cl)cc1			inactive
CSc1n[nH]c(N)c1C(=O)Nc1ccc(C)cc1	> 200	95.5 µM	
C=C1CC[C@@H](Br)C(C)(C)[C@]12CCC(C)(O)C(Cl)C2 (stereo partly drawn)	> 77.6	> 77.6 µM	
COC(=O)N(CO)CO	> 200	> 200 µM	
C=C1CCCCCCCCCCC1S(=O)c1ccccc1 (stereo not drawn)	> 200	12 µM	
NC(N)=NS(=O)(=O)c1ccc(NC(=O)c2cccc3cc4ccccc4nc23)cc1	> 53.7	16.2 µM	
COC(=N)CCSSCCC(=N)OC	> 200	> 200 µM	
Cc1ccc(C(=O)Cc2nc3c([nH]c2=O)c(C)nn3-c2ccccc2)c(C)c1	> 200	> 200 µM	
c1csc(C(NC2=NCCO2)C2CC2)c1 (stereo not drawn)	> 200	166 µM	
CC1=CC2(C)C=C(C)C3(OC(c4ccccc4)=C(C#N)C3=N2)C1=O (stereo not drawn)	> 70.8	34.7 µM	

SMILES	EC50 [µM]	IC50	outcome
O=C(Nc1ccc(C2=NCCN2)cc1)c1cccc(NC(=S)Nc2ccc(C3=NCCN3)cc2)c1	33.1	112 µM	
O=C1/C(=C\c2ccc(Cl)cc2Cl)Sc2scc(-c3ccc(O)c(O)c3)[n+]21	> 200	6.31 µM	
N#CC(C#N)=CNC(=S)Nc1ccc(Cl)c(Cl)c1	> 200	15.1 µM	
COc1ccc(NS(=O)c2ccccc2OC)cc1 (stereo not drawn)	> 200	15.1 µM	
c1ccc(-c2nc(-c3ccccc3SSc3ccccc3-c3nc(-c4ccccc4)nn3-c3ccccc3)n(-c3ccccc3)n2)cc1	> 100	> 100 µM	
CC(O[Si](c1ccccc1)(c1ccccc1)C(C)(C)C)[C@H](NC(=O)OC(C)(C)C)C(=O)O (stereo partly drawn)	> 40.7	> 40.7 µM	
BrC(Br)([P+](c1ccccc1)(c1ccccc1)c1ccccc1)[P+](c1ccccc1)(c1ccccc1)c1ccccc1			inactive
O=c1[nH]c2nn(-c3ccccc3)cc2c(=O)n1O	> 200	3.31 µM	
COc1cc2c(cc1O)[C@H]1COc3ccccc3[C@H]1O2	> 93.3	4.9 µM	
COc1ccc(-c2ccccc2)cc1SSc1cc(-c2ccccc2)ccc1OC	> 200	178 µM	
CC1CCC(=NNS(=O)(=O)c2ccc(N)cc2)CC1 (stereo not drawn)	> 129	> 129 µM	
COc1cc2c(cc1O)[C@@]1(Cc3ccc(OC)c(OC)c3)CCC(=O)N1CC2			inactive
CC1OC(OCC2OC(Oc3c(-c4ccc(O)cc4)oc4cc(O)cc(O)c4c3=O)C(OC3OC(C)C(O)C(O)C3O)C(O)C2O)C(O)C(O)C1O (stereo not drawn)	> 339	> 339 µM	
C(#CCN1CCCC1)CCCN1CCCC1	> 200	> 200 µM	
OCC1OC(n2nc(-c3ccccc3)nc2-c2cnccn2)C(O)C(O)C1O (stereo not drawn)	> 200	> 200 µM	
Cc1cc2c3ccccc3nc2c2cc[nH]c(C)c12	> 110	5.25 µM	
O=C(C/C=C/c1ccccc1)c1ccccc1	> 200	10 µM	
NCCCN=c1ccc2c3c1c(O)c1c(O)ccc(=O)c1c3[nH]n2CCNCCO	> 525	1.07 µM	
CS(=O)(=O)c1cnnc2ccccc12	> 513	> 513 µM	
OC[C@H]1N=C(c2cccs2)OC1c1ccccc1 (stereo partly drawn)	> 200	> 200 µM	
N#C/C(=C\c1cccs1)c1ccccc1	> 200	117 µM	
